Measured values from the supplement of paper PMC10307832.

The cell lines below were run with Cn1c(=O)n(-c2ccc(C(C)(C)C#N)cc2)c2c3cc(-c4cnc5ccccc5c4)ccc3ncc21 [Dactolisib] + N=C(N)NC(=N)NCCc1ccccc1 [Phenformin] (partner 250 µM) (assay: relative viability (nuclei count vs DMSO), 5 days (fraction); higher = more cells survive). Details: first compound 0.002 µM.
Procedure, shortened: (§1)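 A single step with final 0.05% Triton X-100, 1% formaldehyde and 1 ug/ml Hoechst fixed the cells and stained nuclei 5 days after treatment. Lung cancer cell lines in 1536-well plates had been treated by pin tool the day after seeding with one drug alone or a fixed anchor-drug dose plus five library-drug doses (not always all listed) in √10 steps, and nuclei were counted on 4× images. Relative viability is the ratio of nuclei in treated wells to nuclei in vehicle wells, taken as the median of duplicate plates.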
HCC-366 showed a relative viability of 0.602.
Cell Line NCI-H1666 has a relative viability of 0.593.
Cell Line NCI-H596 has a relative viability of 0.738.
Work on LK-2 yielded a relative viability of 0.297.
Cell Line NCI-H2087 has a relative viability of 0.622.
Work on SK-MES-1 yielded a relative viability of 0.667.
Cell Line H3255 has a relative viability of 0.386.
Cell Line COR-L23 has a relative viability of 0.508.
COR-L 105 was tested, and the relative viability was 0.494.
In the case of LOU-NH91, the relative viability is reported as 0.625.
Cell Line ChaGo-K-1 has a relative viability of 0.457.
In the case of NCI-H2170, the relative viability is reported as 0.454.
For NCI-H2405, the relative viability was 0.403.
Work on A549 yielded a relative viability of 0.183.
NCI-H1563 showed a relative viability of 0.674.

Same assay, conditions: first compound 0.006325 µM
NCI-H2342 showed a relative viability of 0.64.
Cell Line NCI-H1623 has a relative viability of 0.628.
NCI-H727 was tested, and the relative viability was 0.588.
For NCI-H1650, the relative viability was 0.41.
In the case of NCI-H1993, the relative viability is reported as 0.509.
SK-LU-1 gave a relative viability of 0.491.
In the case of NCI-H838, the relative viability is reported as 0.423.
LCLC-103H was tested, and the relative viability was 0.321.
For NCI-H520, the relative viability was 0.534.
Cell Line NCI-H2126 has a relative viability of 0.513.
For EMC-BAC-2, the relative viability was 0.529.
With NCI-H2085 the relative viability was 0.689.
With HCC-366 the relative viability was 0.625.
Cell Line NCI-H1666 has a relative viability of 0.53.
Work on NCI-H596 yielded a relative viability of 0.767.
LK-2 was tested, and the relative viability was 0.324.
With NCI-H2087 the relative viability was 0.454.
Work on SK-MES-1 yielded a relative viability of 0.662.
In the case of H3255, the relative viability is reported as 0.354.
COR-L23 gave a relative viability of 0.417.
For COR-L 105, the relative viability was 0.489.
For LOU-NH91, the relative viability was 0.731.
Work on ChaGo-K-1 yielded a relative viability of 0.457.
Cell Line NCI-H2170 has a relative viability of 0.433.
NCI-H2405 showed a relative viability of 0.379.
With A549 the relative viability was 0.153.
For NCI-H1563, the relative viability was 0.622.

Same assay, conditions: first compound 0.02 µM
NCI-H2342 was tested, and the relative viability was 0.54.
For NCI-H1623, the relative viability was 0.561.
For NCI-H727, the relative viability was 0.528.
NCI-H1650 gave a relative viability of 0.454.
With NCI-H1993 the relative viability was 0.518.
SK-LU-1 gave a relative viability of 0.414.
Cell Line NCI-H838 has a relative viability of 0.267.
LCLC-103H gave a relative viability of 0.345.
NCI-H520 was tested, and the relative viability was 0.369.
For NCI-H2126, the relative viability was 0.534.
EMC-BAC-2 was tested, and the relative viability was 0.519.
Cell Line NCI-H2085 has a relative viability of 0.524.
In the case of HCC-366, the relative viability is reported as 0.587.
In the case of NCI-H1666, the relative viability is reported as 0.577.
NCI-H596 showed a relative viability of 0.627.
For LK-2, the relative viability was 0.248.
NCI-H2087 showed a relative viability of 0.378.
SK-MES-1 gave a relative viability of 0.627.
Work on H3255 yielded a relative viability of 0.388.
Cell Line COR-L23 has a relative viability of 0.429.
COR-L 105 gave a relative viability of 0.432.
In the case of LOU-NH91, the relative viability is reported as 0.642.
Cell Line ChaGo-K-1 has a relative viability of 0.464.
NCI-H2170 was tested, and the relative viability was 0.48.
For NCI-H2405, the relative viability was 0.374.
Cell Line A549 has a relative viability of 0.172.
Work on NCI-H1563 yielded a relative viability of 0.626.

Same assay, conditions: first compound 0.06325 µM
NCI-H2342 showed a relative viability of 0.559.
NCI-H1623 gave a relative viability of 0.585.
NCI-H727 showed a relative viability of 0.359.
In the case of NCI-H1650, the relative viability is reported as 0.267.
NCI-H1993 showed a relative viability of 0.5.
With SK-LU-1 the relative viability was 0.259.
Work on NCI-H838 yielded a relative viability of 0.201.
LCLC-103H gave a relative viability of 0.317.
NCI-H520 gave a relative viability of 0.202.
Work on NCI-H2126 yielded a relative viability of 0.435.
Cell Line EMC-BAC-2 has a relative viability of 0.336.
For NCI-H2085, the relative viability was 0.348.
For HCC-366, the relative viability was 0.397.
For NCI-H1666, the relative viability was 0.544.
For NCI-H596, the relative viability was 0.468.
LK-2 was tested, and the relative viability was 0.146.
Cell Line NCI-H2087 has a relative viability of 0.286.
SK-MES-1 gave a relative viability of 0.388.
H3255 was tested, and the relative viability was 0.328.
Work on COR-L23 yielded a relative viability of 0.229.
With COR-L 105 the relative viability was 0.256.
LOU-NH91 showed a relative viability of 0.437.
ChaGo-K-1 was tested, and the relative viability was 0.374.
NCI-H2170 was tested, and the relative viability was 0.434.
Cell Line NCI-H2405 has a relative viability of 0.269.
A549 was tested, and the relative viability was 0.103.
Work on NCI-H1563 yielded a relative viability of 0.61.

Same assay, conditions: first compound 0.2 µM
NCI-H2342 showed a relative viability of 0.525.
NCI-H1623 gave a relative viability of 0.438.
NCI-H727 gave a relative viability of 0.309.
NCI-H1650 was tested, and the relative viability was 0.232.
Cell Line NCI-H1993 has a relative viability of 0.572.
With SK-LU-1 the relative viability was 0.185.
Cell Line NCI-H838 has a relative viability of 0.175.
LCLC-103H gave a relative viability of 0.291.
For NCI-H520, the relative viability was 0.217.
For NCI-H2126, the relative viability was 0.366.
With EMC-BAC-2 the relative viability was 0.251.
NCI-H2085 gave a relative viability of 0.281.
Cell Line HCC-366 has a relative viability of 0.151.
NCI-H1666 gave a relative viability of 0.559.
With NCI-H596 the relative viability was 0.372.
LK-2 gave a relative viability of 0.114.
NCI-H2087 was tested, and the relative viability was 0.123.
In the case of SK-MES-1, the relative viability is reported as 0.212.
With H3255 the relative viability was 0.348.
COR-L23 showed a relative viability of 0.159.
COR-L 105 was tested, and the relative viability was 0.259.
LOU-NH91 was tested, and the relative viability was 0.447.
Work on ChaGo-K-1 yielded a relative viability of 0.444.
In the case of NCI-H2170, the relative viability is reported as 0.284.
With NCI-H2405 the relative viability was 0.256.
A549 gave a relative viability of 0.0668.
For NCI-H1563, the relative viability was 0.54.

What follows are cell lines tested with C1CCC(CC1)N(CCNCCC2=C3C(=C(C=C2)O)NC(=O)CO3)C(=O)CCNCCC4=CC(=C(C=C4)Cl)Cl [AZ505] + N=C(N)NC(=N)NCCc1ccccc1 [Phenformin] (partner 250 µM) in the same assay as above. Details: first compound 0.08 µM.
Procedure, shortened: as §1
NCI-H2342 was tested, and the relative viability was 0.573.
Cell Line NCI-H1623 has a relative viability of 0.54.
Work on NCI-H727 yielded a relative viability of 0.651.
Cell Line NCI-H1650 has a relative viability of 0.429.
For NCI-H1993, the relative viability was 0.472.
SK-LU-1 was tested, and the relative viability was 0.353.
Cell Line NCI-H838 has a relative viability of 0.503.
